# Data from ChEMBL document CHEMBL6127107, “Oleanolic acid derivatives against drug-resistant bacteria and fungi by multi-targets to avoid drug resistance” (Eur J Med Chem, 2024).
# Active and inactive are the calls of the source. The rule behind the calls is not given here.
# What was measured:
# Candida albicans = assay: Antimicrobial activity against fluconazole-resistant Candida albicans; type: functional
# Staphylococcus aureus [1] = assay: Antimicrobial activity against methicillin-resistant Staphylococcus aureus 003; type: functional
# DNA [2] = assay: Binding affinity to […] methicillin-resistant Staphylococcus aureus DNA assessed as inhibition of DNA migration by electrophoretic analysis; type: nucleic-acid assay
# Staphylococcus aureus [3] = assay: Antimicrobial activity against methicillin-resistant Staphylococcus aureus in presence of cardiolipin; type: functional, organism-based
# Cell membrane [4] = assay: Disruption of cell membrane integrity in methicillin-resistant Staphylococcus aureus assessed as cell rupture at 2 to 4 times of MIC by scanning electron microscopic analysis; type: subcellular
# Staphylococcus aureus [5] = assay: Antibiofilm activity against methicillin-resistant Staphylococcus aureus assessed as decrease in biofilm biomass at 1 to 8 times of MIC by crystal violet staining based analysis; type: functional, organism-based
# Staphylococcus aureus [6] = assay: Selectivity ratio of MBEC for methicillin-resistant Staphylococcus aureus to MIC for methicillin resistant Staphylococcus aureus; type: functional
# Cell membrane [7] = assay: Disruption of cell membrane integrity in methicillin-resistant Staphylococcus aureus assessed as increase in ROS level at 2 to 8 times of MIC incubated for 1 hrs; type: subcellular
# Staphylococcus aureus [8] = assay: Synergistic antibacterial activity against methicillin-resistant Staphylococcus aureus assessed as fractional inhibitory concentration index in presence of vancomycin; type: functional
# DNA [9] = assay: Binding affinity to methicillin-resistant Staphylococcus aureus DNA assessed as decrease in fluorescence by PI staining based analysis; type: nucleic-acid assay
# Cell membrane [10] = assay: Disruption of cell membrane integrity in Candida albicans; type: subcellular
# Escherichia coli = assay: Antimicrobial activity against Escherichia coli; type: functional
# DNA [11] = assay: Binding affinity to methicillin-resistant Staphylococcus aureus DNA assessed as inhibition of DNA migration at 75 microg/ml by electrophoretic analysis; type: nucleic-acid assay; conditions: dose 75.0 µg/ml
# Staphylococcus aureus [12] = assay: Antimicrobial activity against methicillin-resistant Staphylococcus aureus in presence of peptidoglycan; type: functional, organism-based
# HEK-293T = assay: Cytotoxicity against HEK293T cells at 64 microg/ml by MTT assay; type: toxicity, cell-based; conditions: human, dose 64 µg/ml
# Staphylococcus aureus [13] = assay: Bactericidal activity against methicillin-resistant Staphylococcus aureus assessed as eradication of bacterial growth at 4 times of MIC measured within 6 hrs relative to control; type: functional
# Staphylococcus aureus [14] = assay: Synergistic antibacterial activity against methicillin-resistant Staphylococcus aureus assessed as fractional inhibitory concentration index in presence of chlorpromazine; type: functional
# Staphylococcus aureus [15] = assay: Synergistic antibacterial activity against methicillin-resistant Staphylococcus aureus assessed as fractional inhibitory concentration index in presence of fluconazole; type: functional
# Staphylococcus aureus [16] = assay: Synergistic antibacterial activity against methicillin-resistant Staphylococcus aureus assessed as fractional inhibitory concentration index in presence of streptomycin; type: functional
# Staphylococcus aureus [17] = assay: Antimicrobial activity against Staphylococcus aureus 29; type: functional
# Cell membrane [18] = assay: Disruption of cell membrane integrity in methicillin-resistant Staphylococcus aureus assessed as cell deformation at 2 to 4 times of MIC by scanning electron microscopic analysis; type: subcellular
# DNA [19] = assay: Binding affinity to methicillin-resistant Staphylococcus aureus DNA minor groove assessed as decrease in fluorescence by DAPI staining based analysis; type: nucleic-acid assay
# Staphylococcus aureus [20] = assay: Synergistic antibacterial activity against methicillin-resistant Staphylococcus aureus assessed as fractional inhibitory concentration index in presence of azithromycin; type: functional
# Cell membrane [21] = assay: Disruption of cell membrane integrity in methicillin-resistant Staphylococcus aureus assessed as nucleic acid leakage by absorbance based analysis; type: subcellular
# Mitochondrial membrane = assay: Induction of mitochondrial membrane depolarization in methicillin-resistant Staphylococcus aureus assessed as increase in fluorescence intensity at 1 to 8 times of MIC by DiSC3(5) staining based analysis; type: cell membranes
# Staphylococcus aureus [22] = assay: Antimicrobial activity against methicillin-resistant Staphylococcus aureus in presence of phosphatidylethanolamine; type: functional, organism-based
# Staphylococcus aureus [23] = assay: Antibiofilm activity against methicillin-resistant Staphylococcus aureus assessed as inhibition of biofilm formation at 2 times of MIC by crystal violet staining based analysis relative to control; type: functional
# Staphylococcus aureus [24] = assay: Synergistic antibacterial activity against methicillin-resistant Staphylococcus aureus assessed as fractional inhibitory concentration index in presence of ampicillin; type: functional
# Staphylococcus aureus [25] = assay: Synergistic antibacterial activity against methicillin-resistant Staphylococcus aureus assessed as fractional inhibitory concentration index in presence of cefoxitin; type: functional
# Staphylococcus aureus [26] = assay: Synergistic antibacterial activity against methicillin-resistant Staphylococcus aureus assessed as fractional inhibitory concentration index in presence of ceftriaxone; type: functional
# Staphylococcus aureus [27] = assay: Antimicrobial activity against methicillin-resistant Staphylococcus aureus 011; type: functional
# DNA [28] = assay: Binding affinity to methicillin-resistant Staphylococcus aureus DNA assessed as effect on helical structure by measuring change in positive and negative peaks at 10 to 40 microg/ml by CD spectra; type: nucleic-acid assay; conditions: dose 10-40 µg/ml
# Cell membrane [29] = assay: Disruption of cell membrane integrity in methicillin-resistant Staphylococcus aureus assessed as increase in PI fluorescence at 2 to 8 times of MIC by PI staining based fluorescence analysis; type: subcellular
# [30] = Selectivity index, ratio of HC50 for hemolytic activity against Mianyang red blood cells (unknown origin) to MIC for antimicrobial activity against methicillin resistant Staphylococcus aureus 003; type: toxicity, cell-based, RBC; conditions: read-out: Selectivity Index
# Staphylococcus aureus [31] = assay: Antibacterial activity against methicillin-resistant Staphylococcus aureus assessed as inhibition of bacterial growth at 1 times of MIC; type: functional, organism-based
# [32] = Hemolytic activity against Mianyang red blood cells (unknown origin); type: toxicity, cell-based, RBC
# Enterococcus faecalis = assay: Antimicrobial activity against vancomycin resistant Enterococcus faecalis ATCC 51299; type: functional
# Staphylococcus aureus [33] = assay: Synergistic antibacterial activity against methicillin-resistant Staphylococcus aureus assessed as fractional inhibitory concentration index in presence of lincomycin hydrochloride; type: functional
# Staphylococcus aureus [34] = assay: Antibiofilm activity against methicillin-resistant Staphylococcus aureus assessed as decrease in biofilm density at 1 to 8 times of MIC incubated for 24 hrs by fluorescence microscopic analysis; type: functional, organism-based
# Staphylococcus aureus [35] = assay: Antibacterial activity against methicillin-resistant Staphylococcus aureus in presence of DNA; type: functional, organism-based
# Staphylococcus aureus [36] = assay: Bactericidal activity against methicillin-resistant Staphylococcus aureus; type: functional, organism-based
# Pseudomonas aeruginosa = assay: Antimicrobial activity against Pseudomonas aeruginosa; type: functional
# Staphylococcus aureus [37] = assay: Antibiofilm activity against methicillin-resistant Staphylococcus aureus assessed as reduction in number of live cells at 8 times of MIC (reference value: 7.79 log10CFU/ml); type: functional
# Staphylococcus aureus [38] = assay: Antimicrobial activity against Staphylococcus aureus 31; type: functional
# DNA [39] = assay: Binding affinity to methicillin-resistant Staphylococcus aureus DNA assessed as change in DNA conformation by UV absorption based analysis; type: nucleic-acid assay
# Staphylococcus aureus [40] = assay: Synergistic antibacterial activity against methicillin-resistant Staphylococcus aureus assessed as fractional inhibitory concentration index in presence of chloramphenicol; type: functional
# Staphylococcus aureus [41] = assay: Antimicrobial activity against Staphylococcus aureus 10; type: functional
# Staphylococcus aureus [42] = assay: Antibacterial activity against methicillin-resistant Staphylococcus aureus at sub-MIC measured after 20 days of continuous passage; type: functional, organism-based; conditions: time 20.0 day
# Staphylococcus aureus [43] = assay: Drug resistance, ratio of MIC for methicillin-resistant Staphylococcus aureus measured after 20 days of continuous passage to MIC for methicillin-resistant Staphylococcus aureus measured after first exposure; type: functional
# Staphylococcus aureus [44] = assay: Antibacterial activity against methicillin-resistant Staphylococcus aureus infected in cyclophosphamide-injected Kunming mouse model of skin wound infection assessed as wound repair by measuring reduction in wound area at 4 mg/kg measured for 7 days by photographic analysis; type: functional, organism-based; conditions: time 7.0 day
# Staphylococcus aureus [45] = assay: Antibacterial activity against methicillin-resistant Staphylococcus aureus infected in cyclophosphamide-injected Kunming mouse model of skin wound infection assessed as reduction in bacterial load in skin at 4 mg/kg measured after 7 days; type: functional; conditions: time 7 day
structure (smiles),measurement,setting,value
CC1(C)CC[C@]2(C(=O)O)CC[C@]3(C)C(=CC[C@@H]4[C@@]5(C)CC[C@H](OCC(O)CCCNC(=N)N)C(C)(C)[C@@H]5CC[C@]43C)[C@@H]2C1 (some centres undefined),MIC,Candida albicans,2 µg/mL
same,MIC,Staphylococcus aureus [1],> 2 µg/mL
same,Activity,DNA [2],Active
same,Activity,Staphylococcus aureus [3],inactive
same,Activity,Cell membrane [4],Active
same,Activity,Staphylococcus aureus [5],Active
same,selectivity ratio,Staphylococcus aureus [6],16
same,Activity,Cell membrane [7],Active
same,fractional inhibitory concentration index (FICI),Staphylococcus aureus [8],<=0.5
same,Activity,DNA [9],Dose-Dependent Effect
same,Activity,Cell membrane [10],Active
same,MIC,Escherichia coli,> 64 µg/mL
same,Activity,DNA [11],Active
same,Activity,Staphylococcus aureus [12],Active
same,Activity,HEK-293T,Non-Toxic
same,Activity,Staphylococcus aureus [13],99.99%
same,fractional inhibitory concentration index (FICI),Staphylococcus aureus [14],<=0.5
same,fractional inhibitory concentration index (FICI),Staphylococcus aureus [15],<=0.5
same,fractional inhibitory concentration index (FICI),Staphylococcus aureus [16],0.25
same,MIC,Staphylococcus aureus [17],4 µg/mL
same,Activity,Cell membrane [18],Active
same,Activity,DNA [19],inactive
same,fractional inhibitory concentration index (FICI),Staphylococcus aureus [20],<=0.5
same,Activity,Cell membrane [21],Active
same,Activity,Mitochondrial membrane,Dose-Dependent Effect
same,Activity,Staphylococcus aureus [22],inactive
same,inhibition (INH),Staphylococcus aureus [23],>80%
same,fractional inhibitory concentration index (FICI),Staphylococcus aureus [24],<=0.5
same,fractional inhibitory concentration index (FICI),Staphylococcus aureus [25],<=0.5
same,fractional inhibitory concentration index (FICI),Staphylococcus aureus [26],<=0.5
same,MIC,Staphylococcus aureus [27],2 µg/mL
same,Activity,DNA [28],Active
same,Activity,Cell membrane [29],Active
same,selectivity ratio,[30],< 390
same,Activity,Staphylococcus aureus [31],Active
same,HC50,[32],779 µg/mL
same,MIC,Enterococcus faecalis,2 µg/mL
same,fractional inhibitory concentration index (FICI),Staphylococcus aureus [33],<=0.5
same,Activity,Staphylococcus aureus [34],Dose-Dependent Effect
same,Activity,Staphylococcus aureus [35],inactive
same,Activity,Staphylococcus aureus [36],Active
same,MIC,Pseudomonas aeruginosa,> 64 µg/mL
same,Activity,Staphylococcus aureus [37],2.7 log10CFU/ml
same,MIC,Staphylococcus aureus [38],2 µg/mL
same,Activity,DNA [39],Active
same,fractional inhibitory concentration index (FICI),Staphylococcus aureus [40],<=0.5
same,MIC,Staphylococcus aureus [41],2 µg/mL
same,Activity,Staphylococcus aureus [42],Active
CCn1cc(C(=O)O)c(=O)c2cc(F)c(N3CCNCC3)cc21 [NORFLOXACIN],Ratio,Staphylococcus aureus [43],32
CN[C@H](CC(C)C)C(=O)N[C@H]1C(=O)N[C@@H](CC(N)=O)C(=O)N[C@H]2C(=O)N[C@H]3C(=O)N[C@H](C(=O)N[C@H](C(=O)O)c4cc(O)cc(O)c4-c4cc3ccc4O)[C@H](O)c3ccc(c(Cl)c3)Oc3cc2cc(c3O[C@@H]2O[C@H](CO)[C@@H](O)[C@H](O)[C@H]2O[C@H]2C[C@](C)(N)[C@H](O)[C@H](C)O2)Oc2ccc(cc2Cl)[C@H]1O [VANCOMYCIN],Activity,Staphylococcus aureus [44],Active
same,Activity,Staphylococcus aureus [45],0.9 log10CFU/mg
same,HC50,[32],> 256 µg/mL
same,MIC,Enterococcus faecalis,2 µg/mL
CC(=O)O[C@H]1CC[C@]2(C)[C@H]3CC=C4[C@@H]5CC(C)(C)CC[C@]5(C(=O)NCCCCNC(=N)N)CC[C@@]4(C)[C@]3(C)CC[C@H]2C1(C)C,MIC,Candida albicans,2 µg/mL
same,MIC,Staphylococcus aureus [1],2 µg/mL
same,MIC,Escherichia coli,> 64 µg/mL
same,MIC,Staphylococcus aureus [17],2 µg/mL
same,MIC,Staphylococcus aureus [27],2 µg/mL
same,selectivity ratio,[30],142
same,HC50,[32],284 µg/mL
same,MIC,Enterococcus faecalis,2 µg/mL
same,MIC,Pseudomonas aeruginosa,> 64 µg/mL
same,MIC,Staphylococcus aureus [38],4 µg/mL
same,MIC,Staphylococcus aureus [41],2 µg/mL
